Patent publication US20090069324A1, “CHEMICAL INHIBITORS OF BFL-1 AND RELATED METHODS” (The Burnham Institute, priority 2007, published 2009)

Key:
human mast cells = experiment: Primary mast cell survival assay (activation-induced survival); type: cell-based
Description: To validate the biological activity of the probe in a cellular readout that is Bfl-1 dependent, CID-779754 was tested in an assay measuring the effect of compounds on primary mast cell survival.
The effect of a Bfl-1 inhibitor at, for example, 1 μM is tested on CBMCs derived from, for example, 12 different individuals. CBMCs are activated by aggregation of the high-affinity IgE-receptor (FcεRI)±CID-779754. Mast cells are cultured with or without IgE crosslinking (IgECL) agent, without or with Bfl-1 inhibitor. The percentage cell survival upon IgE-receptor activation are compared to cells not activated and the delta survival is calculated. Cell survival is measured by LDH release and data were presented as % difference between cells cultured with or without IgECL.

PAMPA assay = type: in vitro ADME
Bfl-1 = target: T1, Bfl-1 (Homo sapiens, UniProt Q16548); experiment: Bfl-1 TR-FRET assay (FITC-Bid, Tb-anti-GST antibody); type: binding; conditions: Tables 3-5; read-out: Bfl-1 TR FRET IC50
T1 construct: lacking their C-terminal transmembrane domains (approximately last 20 amino-acids); made in house; host or cells: XL-1 Blue cells (E. coli), pGEX 4T-1
T1 sequence (Q16548 1-155 limits assumed): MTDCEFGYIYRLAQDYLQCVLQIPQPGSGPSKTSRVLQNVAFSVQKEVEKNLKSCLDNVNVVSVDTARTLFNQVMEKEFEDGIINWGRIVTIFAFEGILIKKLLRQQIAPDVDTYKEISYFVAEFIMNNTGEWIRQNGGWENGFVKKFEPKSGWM
Description: TR-FRET assay. For confirmation of FPA results, a TR-FRET assay utilizing terbium- (Tb-) labeled anti-GST antibody (Th-Ab) was developed. […] The reaction mixture was preincubated for 1 h, and TR-fluorescence (TRF) was measured on an M5 plate reader (Molecular Devices) using excitation at 340 nm and emission at […]. The measurements were averaged from 5 readings during 1 ms after an initial delay 0.1 ms. TR-FRET signal was calculated as the ratio of TR-Fluorescence at 520 nm to TR-Fluorescence at […].
For Bfl-1 TR-FRET assays, Bfl-1 protein and FITC-Bid peptide (FITC-Ahx-[…]) (SEQ ID NO: 1) were utilized. Terbium-anti-GST antibody (Tb-anti-GST Ab) was obtained from Invitrogen (San Diego Calif.). The assay buffer contained 25 mM Bis-Tris, pH 7.0, 1 mM TCEP, and 0.005% Tween 20. The Tb-Ab buffer contained 2.5 nM Tb-anti-GST antibody in assay buffer. The Bfl-1/Th-Ab working solution contained 5 nM Bfl-1 in Th-Ab assay buffer. The solution was prepared fresh and kept on ice prior to use. The FITC-Bid working solution contained 5.6 nM FITC-Bid in assay buffer.
For the Bfl-1 TR-FRET dose-response screening protocol, dose-response curves contained 10 concentrations of compounds obtained using 2-fold serial dilution. Compounds were serially diluted in 100% DMSO, and then diluted with water to 10% final DMSO concentration. A 4 μl aliquot of compounds in 10% DMSO was transferred into columns 3-22 of Greiner 384-well white small-volume plates. Columns 1-2 and 23-24 contained 4 μL of 10% DMSO.
Columns 1-2 were reserved for positive controls, and 8 μL of Th-Ab buffer was added using a WellMate bulk dispenser (Matrix). An aliquot of 8 μL of Bfl-1/Th-Ab working solution was added to columns 3-24 of Greiner 384 well white plates using a WellMate bulk dispenser (Matrix). Columns 23-24 represented negative control wells. Plates were incubated for 1 h at 4° C. An 8 μL aliquot of freshly prepared FITC-Bid working solution was added to the whole plate using WellMate bulk dispenser (Matrix). Plates were incubated for 4 h at room temperature protected from direct light. Fluorescence was measured on the M5 plate reader (excitation: 340 nm, emission: 490 and 520 nm, cutoff: 475 and 515 nm, respectively) in Time Resolved (TR) mode with signal integrated for 1 ms after initial delay of 0.1 ms. TR-FRET signal was calculated as the ratio of TR-Fluorescence at 520 nm to TR-Fluorescence at 490 nm. Data analysis was performed using a sigmoidal dose-response equation through non-linear regression.

In the case of `CN(C)C1=C(Cl)C(=O)N(c2ccc(Cl)c(Cl)c2)C1=O` [CID-779754, 3-chloro-1-(3,4-dichlorophenyl)-4-(dimethylamino)-1H-pyrrole-2,5-dione], the “effect on activation-induced survival of mast cells” value (human mast cells) is reported as “inhibited the activation-induced survival of human mast cells”, the “log Pe” value (PAMPA assay; PAMPA) is reported as −4.2 and the “predicted human GI absorption” value (PAMPA assay; correlated from PAMPA log Pe) is reported as > 50%. For the same molecule, the IC50 (Bfl-1) was 570 nM.
